The source of these data is patent publication US20060079566A1, “PDK-1/Akt signaling inhibitors” (priority 2003, published 2006).

Molecules are shown by their SMILES.

One assay deals with U251. Nature of the assay: NCI DTP screen (SRB), CNS Cancer. Type of assay: cell-based, human. Particulars: Homo sapiens, U-251. As for the experimental part: Screening of compounds 70 and 71 against several cancer cell lines The human tumor cell lines of the cancer screening panel are grown in RPMI 1640 medium containing 5% fetal bovine serum and 2 mM L-glutamine. For a typical screening experiment, cells are inoculated into 96 well microtiter plates in 100 μL at plating densities ranging from 5,000 to 40,000 cells/well depending on the doubling time of individual cell lines. After cell inoculation, the microtiter plates are incubated at 37° C., 5% CO2, 95% air and 100% relative humidity for 24 h prior to addition of experimental drugs. […]
Following drug addition, the plates are incubated for an additional 48 h at 37° C., 5% CO2, 95% air, and 100% relative humidity. […] Bound stain is subsequently solubilized with 10 mM trizma base, and the absorbance is read on an automated plate reader at a wavelength of 515 nm. […] Using the seven absorbance measurements [time zero, (Tz), control growth, (C), and test growth in the presence of drug at the five concentration levels (Ti)], the percentage growth is calculated at each of the drug concentrations levels. Percentage growth inhibition is calculated as: [(Ti−Tz)/(C−Tz)]×100 for concentrations for which Ti>/=Tz [(Ti−Tz)/Tz]×100 for concentrations for which Ti<Tz
Three dose response parameters are calculated for each experimental agent. […]

A further assay deals with MOLT-4. Put plainly: NCI DTP screen (SRB), Leukemia. Type of assay: cell-based. The note with it: Homo sapiens. As for the experimental part:
(§1) Screening of compounds 70 and 71 against several cancer cell lines The human tumor cell lines of the cancer screening panel are grown in RPMI 1640 medium containing 5% fetal bovine serum and 2 mM L-glutamine. For a typical screening experiment, cells are inoculated into 96 well microtiter plates in 100 μL at plating densities ranging from 5,000 to 40,000 cells/well depending on the doubling time of individual cell lines. After cell inoculation, the microtiter plates are incubated at 37° C., 5% CO2, 95% air and 100% relative humidity for 24 h prior to addition of experimental drugs.
(§2) After 24 h, two plates of each cell line are fixed in situ with TCA, to represent a measurement of the cell population for each cell line at the time of drug addition (Tz). Experimental drugs are solubilized in dimethyl sulfoxide at 400-fold the desired final maximum test concentration and stored frozen prior to use. At the time of drug addition, an aliquot of frozen concentrate is thawed and diluted to twice the desired final maximum test concentration with complete medium containing 50 μg/ml gentamicin. Additional four, 10-fold or ½ log serial dilutions are made to provide a total of five drug concentrations plus control. Aliquots of 100 μl of these different drug dilutions are added to the appropriate microtiter wells already containing 100 μl of medium, resulting in the required final drug concentrations.
(§3) Following drug addition, the plates are incubated for an additional 48 h at 37° C., 5% CO2, 95% air, and 100% relative humidity. For adherent cells, the assay is terminated by the addition of cold TCA. Cells are fixed in situ by the gentle addition of 50 μl of cold 50% (w/v) TCA (final concentration, 10% TCA) and incubated for 60 minutes at 4° C. The supernatant is discarded, and the plates are washed five times with tap water and air dried. Sulforhodamine B (SRB) solution (100 μl) at 0.4% (w/v) in 1% acetic acid is added to each well, and plates are incubated for 10 minutes at room temperature. After staining, unbound dye is removed by washing five times with 1% acetic acid and the plates are air dried. Bound stain is subsequently solubilized with 10 mM trizma base, and the absorbance is read on an automated plate reader at a wavelength of 515 nm. For suspension cells, the methodology is the same except that the assay is terminated by fixing settled cells at the bottom of the wells by gently adding 50 μl of 80% TCA (final concentration, 16% TCA). Using the seven absorbance measurements [time zero, (Tz), control growth, (C), and test growth in the presence of drug at the five concentration levels (Ti)], the percentage growth is calculated at each of the drug concentrations levels. Percentage growth inhibition is calculated as: [(Ti−Tz)/(C−Tz)]×100 for concentrations for which Ti>/=Tz [(Ti−Tz)/Tz]×100 for concentrations for which Ti<Tz
(§4) Three dose response parameters are calculated for each experimental agent. […] The drug concentration resulting in total growth inhibition (TGI) is calculated from Ti=Tz. […] Values are calculated for each of these three parameters if the level of activity is reached; however, if the effect is not reached or is exceeded, the value for that parameter is expressed as greater or less than the maximum or minimum concentration tested.

The subject of the next assay is K-562. Put plainly: NCI DTP screen (SRB), Leukemia. Particulars: Homo sapiens. Type of assay: cell-based. As for the experimental part:
as §1, §2, §3, §4

The test system of a further assay is SR. Nature of the assay: NCI DTP screen (SRB), Leukemia. Type of assay: cell-based. As for the experimental part: as §1, §2, §3, §4
For the next assay, the system named is RPMI-8226. Nature of the assay: NCI DTP screen (SRB), Leukemia. Type of assay: cell-based. Particulars: Homo sapiens. As for the experimental part:
as §1, §2, §3, §4

What is called GI50 is the concentration that inhibits growth by half. A low value points to greater sensitivity of the cells. With `NCC(=O)Nc1ccc(-n2nc(C(F)(F)F)cc2-c2ccc3c(ccc4ccccc43)c2)cc1` [Compound 70, 2-Amino-N-{4-[5-(2-phenanthrenyl)-3-(trifluoromethyl)-1H-pyrazol-1-yl]-phenyl}-acetamide], the GI50 came out at 775 nM in the assay with U251; 636 nM in the assay with MOLT-4 (MOLT-4); 257 nM in the assay with K-562 (K562, K-562); 711 nM in the assay on SR (Homo sapiens); 537 nM in the assay with RPMI-8226. Moreover, the CC50 was above 100000 nM in the assay on MOLT-4 (MOLT-4, read-out: LC50); above 100000 nM in the assay on K-562 (K562, read-out: LC50); above 100000 nM in the assay with SR (Homo sapiens, read-out: LC50). Moreover, in the assay with SR (Log10 Concentration −8.0), the “Mean Optical Densities” value is 0.816.
